Source: publication PMC8179393 (Chemical Science, 2021)

Tests used:
[1] = test system: HEY cells; assay: Cellular cisplatin sensitization assay; type: cell-based, human; settings: absence of cisplatin, peptide 50 μM or chloroquine 5 μM, 48 h
[2] = test system: OVCAR8 cells; assay: Cellular cisplatin sensitization assay; type: cell-based, human; settings: OVCAR8, absence of cisplatin, peptide 50 μM or chloroquine 5 μM, 48 h

## CCN(CC)CCCC(C)Nc1ccnc2cc(Cl)ccc12 (centres unmarked) [chloroquine]
[1]
  cell viability (MTT), in words: significantly reduced cell viability
[2]
  cell viability (MTT), in words: significantly reduced cell viability
